Changes are numbered by the printed parent chain. Activity calls are given as the source filed them. No cut-off for these calls is given here.
Key:
Mus musculus = assay: In vivo inhibition of TRAP1 in nude mouse xenografted with human NCI-H460 cells assessed as increase in SIRT3 degradation at 5 mg/kg, ip administered daily by Western blot analysis; type: functional, organism-based
[1] = system: T1, Heat shock protein 75 kDa, mitochondrial (Homo sapiens), Q12931 [R402Q]; assay: Stimulation of recombinant […] human TRAP1 R402Q mutant ATPase activity expressed in Escherichia coli BL21 (DE3) up to 20 uM preincubated for 0.5 hrs followed by ATP addition and measured after 3 hrs by PiColorLock Gold reagent based colorimetric assay
T1 sequence (whole entry): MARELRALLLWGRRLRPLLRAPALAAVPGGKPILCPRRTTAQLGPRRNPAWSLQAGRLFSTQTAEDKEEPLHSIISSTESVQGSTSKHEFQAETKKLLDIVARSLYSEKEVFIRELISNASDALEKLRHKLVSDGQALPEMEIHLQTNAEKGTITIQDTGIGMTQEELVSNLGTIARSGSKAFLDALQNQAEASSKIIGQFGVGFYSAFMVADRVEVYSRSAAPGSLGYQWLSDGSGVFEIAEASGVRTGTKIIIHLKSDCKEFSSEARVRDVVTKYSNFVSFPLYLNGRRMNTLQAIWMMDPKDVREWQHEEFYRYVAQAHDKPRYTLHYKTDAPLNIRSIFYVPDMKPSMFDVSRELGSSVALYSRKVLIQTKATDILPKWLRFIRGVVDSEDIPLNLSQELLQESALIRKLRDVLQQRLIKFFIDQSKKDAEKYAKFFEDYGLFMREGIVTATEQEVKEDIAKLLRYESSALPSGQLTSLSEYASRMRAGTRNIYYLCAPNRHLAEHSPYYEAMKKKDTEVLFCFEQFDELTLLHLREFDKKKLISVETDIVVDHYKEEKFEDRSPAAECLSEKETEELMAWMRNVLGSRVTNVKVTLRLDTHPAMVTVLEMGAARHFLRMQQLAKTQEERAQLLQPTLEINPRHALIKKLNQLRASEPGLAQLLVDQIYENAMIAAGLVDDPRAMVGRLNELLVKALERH

[2] = biological target: T2, Heat shock protein 75 kDa, mitochondrial (Homo sapiens) (UniProt Q12931); assay: Inhibition of TRAP1 in human PC3 cells assessed as reduction in SDHB expression at 5 uM measured after 2 to 12 hrs by Western blot analysis; type: cell-based; conditions: PC-3
T2 sequence (whole entry): T1 sequence (whole entry) with Q402R

[3] = biological target: T2, Heat shock protein 75 kDa, mitochondrial (Homo sapiens); assay: Binding affinity to recombinant wild-type human TRAP1 ATP site expressed in Escherichia coli BL21 (DE3) assessed as induction of conformational change by measuring closed state population of TRAP1 at 10 uM preincubated for 30 mins followed by ATP addition and measured after 30 mins by TEM analysis (reference value: 52.1 +/- 0.6 %)
PC-3 = assay: Cytotoxicity against human PC3 cells assessed as reduction in cell viability up to 3 uM measured after 24 hrs by MTT assay; type: functional, cell-based
[4] = biological target: T2, Heat shock protein 75 kDa, mitochondrial (Homo sapiens); assay: Inhibition of TRAP1 in human PC3 cells assessed as loss of mitochondrial membrane potential at 10 uM measured after 2 hrs by TMRM dye based flow cytometry; type: cell-based; conditions: PC-3
[5] = biological target: T2, Heat shock protein 75 kDa, mitochondrial (Homo sapiens); assay: Binding affinity to recombinant wild-type human TRAP1 ATP site expressed in Escherichia coli BL21 (DE3) assessed as induction of conformational change by measuring closed state population of TRAP1 at 10 uM measured after 30 mins in absence of ATP by TEM analysis (reference value: 52.1 +/- 0.6 %)
NCI-H460 = assay: Antitumor activity against human NCI-H460 cells xenografted in nude mouse assessed as induction of tumor cell death by measuring increase in cleaved caspase-9 expression at 5 mg/kg, ip administered daily by Western blot analysis; type: functional, organism-based
[6] = system: T3, Heat shock protein 75 kDa, mitochondrial (Homo sapiens), Q12931 [R114E,R402Q]; assay: Stimulation of recombinant […] human TRAP1 R114E/R402Q mutant ATPase activity expressed in Escherichia coli BL21 (DE3) up to 20 uM preincubated for 0.5 hrs followed by ATP addition and measured after 3 hrs by PiColorLock Gold reagent based colorimetric assay
T3 sequence (whole entry): T1 sequence (whole entry) with R114E

Activity [1]: Active | inhibition [2]: Active | Activity [3]: 94.2% | inhibition [4]: Active | Activity [5]: 72.5% | Activity [6]: inactive
SMILES: Nc1ncnc2c1nc(Sc1cc3c(cc1I)OCO3)n2CCCCCCCCCC[P+](c1ccccc1)(c1ccccc1)c1ccccc1
inhibition (Mus musculus): Active | Activity (PC-3): Active | Activity (NCI-H460): Active

From ChEMBL document CHEMBL4602687, “Dual Binding to Orthosteric and Allosteric Sites Enhances the Anticancer Activity of a TRAP1-Targeting Drug” (J Med Chem, 2020)
